# Earlier results in publication PMC10323144, “Garbage in, garbage out: how reliable training data improved a virtual screening approach against SARS-CoV-2 MPro” (Frontiers in Pharmacology, 2023).
# Numbered stars: 1 amine (or outer) side, 2 acyl side, 3 side chain; on linkers, the order of the positions; unused ones are H or OH. Bridge positions count the residues as written; N and C are the ends. Square brackets hold non-standard residues; d marks the D form. Peptide text beside a SMILES is read from it. * marks the point of attachment. hTyr(3S-OH,4S-OH,3'-OSO3H) = N[C@H](C(=O)O)[C@H](O)[C@@H](O)c1ccc(O)c(OS(=O)(=O)O)c1; Orn(4R-OH,5R-OH) = O=C([C@H](C[C@@H](O)[C@@H](O)N[*:3])N[*:1])[*:2]; Pro(3S-OH,4S-Me) = C[C@H]1CN[C@H](C(=O)O)[C@H]1O; X1 = CCCCCOc1ccc(-c2cc(-c3ccc(C(=O)*)cc3)no2)cc1; Gln(3R-OH) = NC(=O)C[C@@H](O)[C@H](N)C(=O)O; Hyp = O=C(O)[C@@H]1C[C@@H](O)CN1
# System: MPro
# Conditions: compiled from peer-reviewed sources (287 compounds) ref the 18 original articles; cited from earlier work
row,Compound,Class (MPro activity class)
1,COc1c(O)cc(O)c2c(=O)cc(-c3ccccc3)oc12 [Wogonin],"0 (compounds with IC50 > 20 μM, percentage inhibition <80% at 20 µM or 50 μM, or percentage enzyme inhibition <50% at 10 µM were labelled as INACTIVE)"
2,COc1ccccc1OCCNC(=O)c1cc(=O)[nH]c2ccccc12 [MAT-POS-916a2c5a-2],1 (Compounds with IC50 < 10 µM or with a percentage of enzyme inhibition >50% at 10 µM were labelled as ACTIVE)
3,CC(C)CCNC(=O)C(CC(C)C)NC(=O)C1OC1C(=O)O (stereo not shown) [Loxistatin Acid],"0 (compounds with IC50 > 20 μM, percentage inhibition <80% at 20 µM or 50 μM, or percentage enzyme inhibition <50% at 10 µM were labelled as INACTIVE)"
4,CC(=O)c1cc([N+](=O)[O-])c(Sc2ccc(F)cc2F)s1 [P22077],"0 (compounds with IC50 > 20 μM, percentage inhibition <80% at 20 µM or 50 μM, or percentage enzyme inhibition <50% at 10 µM were labelled as INACTIVE)"
5,O=C(Nc1ccc(N(Cc2ccsc2)C(=O)Cn2nnc3ccccc32)cc1)C1CC1 [16e (ML300)],1 (Compounds with IC50 < 10 µM or with a percentage of enzyme inhibition >50% at 10 µM were labelled as ACTIVE)
6,COCCOc1cc(Cl)cc(-c2cc(-c3ccccc3C#N)cn(-c3cccnc3)c2=O)c1 [compound 6],1 (Compounds with IC50 < 10 µM or with a percentage of enzyme inhibition >50% at 10 µM were labelled as ACTIVE)
7,O=C1c2ccccc2NC(c2cc(Br)ccc2O)N1N=Cc1cc(Br)ccc1O (stereo not shown) [QZ1],"0 (compounds with IC50 > 20 μM, percentage inhibition <80% at 20 µM or 50 μM, or percentage enzyme inhibition <50% at 10 µM were labelled as INACTIVE)"
8,CCC(C)SSc1ncc[nH]1 (stereo not shown) [PX-12],"0 (compounds with IC50 > 20 μM, percentage inhibition <80% at 20 µM or 50 μM, or percentage enzyme inhibition <50% at 10 µM were labelled as INACTIVE)"
9,O=c1[nH]cc(-c2cc(-c3cc(Cl)cc(OCc4ccc(F)cc4Cl)c3)c(=O)n(-c3cccnc3)c2)c(=O)[nH]1 [compound 22],1 (Compounds with IC50 < 10 µM or with a percentage of enzyme inhibition >50% at 10 µM were labelled as ACTIVE)
10,CCCc1ccc(OCC(=O)N(Cc2nc(-c3cccnc3)no2)C(C)C)cc1 [PI-1840],"0 (compounds with IC50 > 20 μM, percentage inhibition <80% at 20 µM or 50 μM, or percentage enzyme inhibition <50% at 10 µM were labelled as INACTIVE)"
11,Forsythoside B,1 (Compounds with IC50 < 10 µM or with a percentage of enzyme inhibition >50% at 10 µM were labelled as ACTIVE)
12,CC(C)C[C@H](NC(=O)[C@H](CCc1ccccc1)NC(=O)CN1CCOCC1)C(=O)N[C@@H](Cc1ccccc1)C(=O)N[C@@H](CC(C)C)C(=O)[C@@]1(C)CO1 [carfilzomib],"0 (compounds with IC50 > 20 μM, percentage inhibition <80% at 20 µM or 50 μM, or percentage enzyme inhibition <50% at 10 µM were labelled as INACTIVE)"
13,CC(C)(C)OC(=O)N[C@H]1CCCCC/C=C\[C@@H]2C[C@@]2(C(=O)NS(=O)(=O)C2CC2)NC(=O)[C@@H]2C[C@@H](OC(=O)N3Cc4cccc(F)c4C3)CN2C1=O [Danoprevir],"0 (compounds with IC50 > 20 μM, percentage inhibition <80% at 20 µM or 50 μM, or percentage enzyme inhibition <50% at 10 µM were labelled as INACTIVE)"
14,COc1cc([C@H]2OC[C@H]3[C@@H]2CO[C@H]3c2ccc(OC)c(OC)c2)ccc1O [Phillygenin],"0 (compounds with IC50 > 20 μM, percentage inhibition <80% at 20 µM or 50 μM, or percentage enzyme inhibition <50% at 10 µM were labelled as INACTIVE)"
15,COC(=O)N[C@H](C(=O)N1CCC[C@H]1c1nc2cc([C@H]3CC[C@H](c4cc5nc([C@@H]6CCCN6C(=O)[C@@H](NC(=O)OC)[C@@H](C)OC)[nH]c5cc4F)N3c3cc(F)c(N4CCC(c5ccc(F)cc5)CC4)c(F)c3)c(F)cc2[nH]1)[C@@H](C)OC [Pibrentasvir],"0 (compounds with IC50 > 20 μM, percentage inhibition <80% at 20 µM or 50 μM, or percentage enzyme inhibition <50% at 10 µM were labelled as INACTIVE)"
16,CNC(=O)[C@H](Cc1ccccc1)NC(=O)[C@H](CC(C)C)[C@H](CSc1cccs1)C(=O)NO [Batimastat],"0 (compounds with IC50 > 20 μM, percentage inhibition <80% at 20 µM or 50 μM, or percentage enzyme inhibition <50% at 10 µM were labelled as INACTIVE)"
17,CC1CN(Cc2cccc(Cl)c2)CCN1C(=O)CCl (stereo not shown) [MED-COV-4280ac29-13],1 (Compounds with IC50 < 10 µM or with a percentage of enzyme inhibition >50% at 10 µM were labelled as ACTIVE)
18,CC(C)C[C@H](NC(=O)CNC(=O)c1cc(Cl)ccc1Cl)B(O)O [MLN2238],"0 (compounds with IC50 > 20 μM, percentage inhibition <80% at 20 µM or 50 μM, or percentage enzyme inhibition <50% at 10 µM were labelled as INACTIVE)"
19,COc1ccc2c(c1)CN(C(=O)CCl)C(c1ccccc1)C2 (stereo not shown) [NAU-LAT-64f4b287-4],1 (Compounds with IC50 < 10 µM or with a percentage of enzyme inhibition >50% at 10 µM were labelled as ACTIVE)

row,Compound,Class (MPro activity class)
1,C[C@@H]1CCN(C(=O)CC#N)C[C@@H]1N(C)c1ncnc2[nH]ccc12 [Tofacitinib],"0 (compounds with IC50 > 20 μM, percentage inhibition <80% at 20 µM or 50 μM, or percentage enzyme inhibition <50% at 10 µM were labelled as INACTIVE)"
2,O=C(O)c1nn(Cc2ccc(Cl)cc2Cl)c2ccccc12 [LONIDAMINE],"0 (compounds with IC50 > 20 μM, percentage inhibition <80% at 20 µM or 50 μM, or percentage enzyme inhibition <50% at 10 µM were labelled as INACTIVE)"
3,"O=c1cc(-c2ccccc2)oc2cc(O)c(O)cc12 [6,7-Dihydroxyflavone]","0 (compounds with IC50 > 20 μM, percentage inhibition <80% at 20 µM or 50 μM, or percentage enzyme inhibition <50% at 10 µM were labelled as INACTIVE)"
4,C=C[C@H]1[C@H](O[C@@H]2O[C@H](CO)[C@@H](O)[C@H](O)[C@H]2O)OC=C(C(=O)OC)[C@H]1CC(=O)O [Secoxyloganin],"0 (compounds with IC50 > 20 μM, percentage inhibition <80% at 20 µM or 50 μM, or percentage enzyme inhibition <50% at 10 µM were labelled as INACTIVE)"
5,O=c1c(O)c(-c2cc(O)c(O)c(O)c2)oc2cc(O)cc(O)c12 [Myricetin],1 (Compounds with IC50 < 10 µM or with a percentage of enzyme inhibition >50% at 10 µM were labelled as ACTIVE)
6,CC(C)CN(C[C@@H](O)[C@H](Cc1ccccc1)NC(=O)O[C@H]1CCOC1)S(=O)(=O)c1ccc(N)cc1 [Amprenavir],"0 (compounds with IC50 > 20 μM, percentage inhibition <80% at 20 µM or 50 μM, or percentage enzyme inhibition <50% at 10 µM were labelled as INACTIVE)"
7,O=C(CCl)N1CCN(Cc2cccc3ccccc23)CC1 [MED-COV-4280ac29-31],1 (Compounds with IC50 < 10 µM or with a percentage of enzyme inhibition >50% at 10 µM were labelled as ACTIVE)
8,Cc1cccc(COc2cc(Cl)cc(-c3cc(-c4c[nH]c(=O)[nH]c4=O)cn(-c4cccnc4)c3=O)c2)c1 [compound 17],1 (Compounds with IC50 < 10 µM or with a percentage of enzyme inhibition >50% at 10 µM were labelled as ACTIVE)
9,N=C(N)c1ccc2cc(OC(=O)c3ccc(N=C(N)N)cc3)ccc2c1 [Nafamostat],"0 (compounds with IC50 > 20 μM, percentage inhibition <80% at 20 µM or 50 μM, or percentage enzyme inhibition <50% at 10 µM were labelled as INACTIVE)"
10,CN(C)C(=O)c1cc2cnc(Nc3ccc(N4CCNCC4)cn3)nc2n1C1CCCC1 [RIBOCICLIB],"0 (compounds with IC50 > 20 μM, percentage inhibition <80% at 20 µM or 50 μM, or percentage enzyme inhibition <50% at 10 µM were labelled as INACTIVE)"
11,"CCCCCOc1ccc(-c2cc(-c3ccc(C(=O)N[C@H]4C[C@@H](O)[C@@H](O)NC(=O)[C@@H]5[C@@H](O)[C@@H](C)CN5C(=O)[C@H]([C@H](O)CC(N)=O)NC(=O)[C@H]([C@H](O)[C@@H](O)c5ccc(O)c(OS(=O)(=O)O)c5)NC(=O)[C@@H]5C[C@@H](O)CN5C(=O)[C@H]([C@@H](C)O)NC4=O)cc3)no2)cc1 [Micafungin] (X1-[Orn(4R-OH,5R-OH)]T[Hyp][hTyr(3S-OH,4S-OH,3'-OSO3H)][Gln(3R-OH)][Pro(3S-OH,4S-Me)]; lactam 1-C)","0 (compounds with IC50 > 20 μM, percentage inhibition <80% at 20 µM or 50 μM, or percentage enzyme inhibition <50% at 10 µM were labelled as INACTIVE)"
12,CCOC(=O)/C=C/[C@H](C[C@@H]1CCNC1=O)NC(=O)[C@@H](CC(=O)[C@@H](NC(=O)c1cc(C)on1)C(C)C)Cc1ccc(F)cc1 [Rupintrivir],"0 (compounds with IC50 > 20 μM, percentage inhibition <80% at 20 µM or 50 μM, or percentage enzyme inhibition <50% at 10 µM were labelled as INACTIVE)"
13,CCOC(=O)[C@H]1O[C@@H]1C(=O)N[C@@H](CC(C)C)C(=O)NCCC(C)C [Aloxistatin],"0 (compounds with IC50 > 20 μM, percentage inhibition <80% at 20 µM or 50 μM, or percentage enzyme inhibition <50% at 10 µM were labelled as INACTIVE)"
14,O=c1[nH]cc(-c2cc(-c3cc(Cl)cc(OCc4ccccc4F)c3)c(=O)n(-c3cccnc3)c2)c(=O)[nH]1 [compound 18],1 (Compounds with IC50 < 10 µM or with a percentage of enzyme inhibition >50% at 10 µM were labelled as ACTIVE)
15,CC(C)(C)[C@@H]1NC(=O)O[C@@H]2CCC[C@H]2OC/C=C/C(F)(F)c2nc3ccccc3nc2O[C@@H]2C[C@@H](C(=O)N[C@]3(C(=O)NS(=O)(=O)C4(C)CC4)C[C@H]3C(F)F)N(C2)C1=O [Glecaprevir],"0 (compounds with IC50 > 20 μM, percentage inhibition <80% at 20 µM or 50 μM, or percentage enzyme inhibition <50% at 10 µM were labelled as INACTIVE)"
16,O=C(NN=Cc1c[nH]cn1)C1CCCCC1 [LASSBio-1600 (15)],"0 (compounds with IC50 > 20 μM, percentage inhibition <80% at 20 µM or 50 μM, or percentage enzyme inhibition <50% at 10 µM were labelled as INACTIVE)"
17,COc1cccc(Nc2c(C(N)=O)cnc3c(C)cc(S(=O)(=O)c4cccc(C(=O)N(C)C)c4)cc23)c1 [GSK-256066],"0 (compounds with IC50 > 20 μM, percentage inhibition <80% at 20 µM or 50 μM, or percentage enzyme inhibition <50% at 10 µM were labelled as INACTIVE)"
18,CCn1c(=O)c(-c2cc[nH]n2)cc2c(C)nc(N)nc21 [VOXTALISIB],"0 (compounds with IC50 > 20 μM, percentage inhibition <80% at 20 µM or 50 μM, or percentage enzyme inhibition <50% at 10 µM were labelled as INACTIVE)"
